Test [1] relates to wild type replicon of genotype 1b (con1b) in Huh7-cure cells. As to the kind of experiment: Transient replicon assay, wild type replicon of genotype 1b (Con1b). As to conditions: Hepatitis C virus, transient wild type replicon genotype 1b, 48 h, luciferase, read-out: EC50-T Con1b. Type of test: cell-based, HCV genotype 1b. For orientation: In antiviral work, replicon cells carry a viral genome segment that copies itself.

Test [2] concerns the target T1, HCV NS5B polymerase (NS5BΔC21) (Hepatitis C virus genotype 1b, UniProt Q9WMX2).
T1 construct: NS5B (genotype 1b consensus strain Con1) lacking 21 C-terminal residues; made in house; host or cells: E. coli Rosetta 2 (DE3)
Description: RNA-dependent RNA polymerase assay (enzyme inhibition assay). The test is classed as biochemical, HCV (genotype 1b consensus strain Con1). The text has this: The coding sequence for NS5B (genotype 1b consensus strain Con1) lacking 21 C-terminal residues was amplified from plasmid pFKI389/ns3-3′ (Genbank accession no. AJ242654), plasmid pCV-H77C (Genbank accession no. AF 011751.1) and subcloned into the pET21b plasmid as described previously (Pauwels et al. J. Virol., 2007). The NS5BΔC21 expression constructs were transformed into E. coli Rosetta 2 (DE3) (Novagen, Madison, Wis.). One hundred milliliters of LB-medium supplemented with carbenicillin (50 μg/mL) and chloramphenicol (34 μg/mL) was inoculated with one colony, grown overnight, and transferred to fresh LB-medium supplemented with 3% ethanol, carbenicillin and chloramphenicol, at a ratio of 1:200. Cells were grown to an optical density at 600 nm of 0.6, after which the expression cultures were shifted to a growth temperature of 20° C. following induction with ispopropyl-1-thio-β-D-galactopyranoside and MgCl2 at a final concentration of 0.4 mM and 10 μM, respectively. After 18 h of induction, cells were harvested by centrifugation and resuspended in 20 mM Tris-HCl, pH 7.5, 300 mM NaCl, 10% glycerol, 0.1% NP40, 4 mM MgCl2, 5 mM DTT supplemented with EDTA-free Complete Protease Inhibitor (Roche, Basel, Switzerland). Cell suspensions were disrupted by sonication and incubated with 10-15 mg/L of DNase I (Roche, Basel, Switzerland) for 30 min. Cell debris was removed through ultracentrifugation at 30,000×g for 1 hour and clarified cell lysate was flash frozen and stored at −80° C. prior to purification.
Clarified cell lysate was thawed and subsequently loaded onto a 5 mL pre-packed HisTrap FF column equilibrated with 25 mM HEPES, pH 7.5, 500 mM NaCl, 10% glycerol and 5 mM DTT. Proteins were eluted with 500 mM imidazole at a flow rate of 1 mL/min. Fractions containing the protein of interest were applied onto a pre-packed 26/10 HiPrep Desalting Column equilibrated with 25 mM HEPES, pH 7.5, 250 mM NaCl, 10% glycerol and 5 mM DTT. The buffer-exchanged NS5B peak was then applied onto a 6 ml Resource S column. Protein was eluted with an increasing salt gradient and fractions collected. Protein purity was assessed on Nu-PAGE pre-cast gels (Invitrogen, Carlsbad, Calif.). Purified NS5B samples were concentrated using Centri-Prep concentrators (Millipore, Billerica, Mass., USA) and protein concentrations were determined by spectrofotometry with the Nanodrop (Nanodrop Technologies, Wilmington, Del., USA).
Measurement of HCV NS5B polymerization activity was performed by evaluating the amount of radio labeled GTP incorporated by the enzyme in a newly synthesized RNA using […] RNA template/primer. The RdRp assay was carried out in 384-well plates. 2.5 nM of purified NS5B enzyme was pre-incubated for 10 min with 150 nM 5′-biotinylated oligo(rG13) primer, 15 nM poly(rC) template, in 18 mM Tris-HCl, pH 7.5, 5 mM MgCl2, 20.5 mM KCl, 17 mM NaCl and 2.5 mM of DTT. The test compounds were the added to the preformed polymerase-template complex, and incubated at room temperature for 15 min before the addition 600 nM of GTP, and 0.13 μCi of [^3H]GTP. 30 μL reaction mixture was incubated at room temperature for 2 h before stopping the reaction by adding 30 μL of streptavidin coated SPA-beads (GE Healthcare, Uppsala, Sweden) in 0.5 M EDTA. […] IC50 values represent the concentration of compound required to decrease by 50% the amount of RNA produced which is measured by the detection of incorporated radiolabeled GTP.

In test [3] the test system is NS5B chimeric replicon of clinical isolate 1a_H77 in Huh7-cure cells. Description: Transient replicon assay, chimeric replicon of clinical isolate 1a_H77 (CI1). Type of test: cell-based, HCV genotype 1a. As to conditions: Hepatitis C virus, 48 h, read-out: EC50-T CI1.
Test [4] relates to NS5B chimeric replicon of clinical isolate 1a—6 in Huh7-cure cells. Description: Transient replicon assay, chimeric replicon of clinical isolate 1a—6 (CI2). The test is classed as cell-based, HCV genotype 1a. As to conditions: Hepatitis C virus, 48 h, read-out: EC50-T CI2.
Test [5] deals with T2, NS5B wild-type enzyme genotype 4a (UniProt O39929).
T2 construct: fused on or other part: His6 tag
Description: Enzyme binding assay (SPR, Biacore), genotype 4a. More on the design: species or system HCV genotype 4a. As to conditions: for Kd: Kd=koff/kon; for koff / kon: SPR, 25° C.; for t1/2 (dissociative half-life): t1/2=ln(2)/koff. The protocol:
(§1) The compounds of formula (I) were examined for their enzymatic binding kinetics or affinity using a Surface Plasmon Resonance (SPR)-based method, i.e. Biacore. A slow dissociation of the inhibiting compound from its viral target (low koff, low Kd) is believed to potentially reduce the development of drug resistance against anti-viral drugs (Dierynck et al. 2007. Journal of Virology, vol. 81, No. 24, 13845-13851). All measurements were performed on a Biacore T100 instrument (GE Healthcare). The purified HIS6-tagged NS5BΔC21 polymerases were immobilized using non-covalent capturing to an NTA sensor chip (GE Healthcare) in immobilization buffer (20 mM MOPS pH 7.4, 500 mM NaCl, 0.005% Tween-P20, 1 mM DTT, 50 μM EDTA). Interaction studies were all performed at 25° C. Inhibitors were serially diluted in running buffer (20 mM Tris-HCl pH 7.4, 150 mM NaCl, 50 μM EDTA, 1 mM DTT, 0.005% Tween-P20) containing 5% dimethyl sulfoxide (DMSO). Single-cycle kinetics were used, in which 5 increasing concentrations of compound were injected for a period of 300 s each in 1 single cycle, and dissociation was monitored for a period of 1200 s. The sensor surface was completely regenerated in between the cycles. Data were analyzed using simultaneous nonlinear regression analysis (global fitting) adapted for single-cycle kinetics with Biacore T100 BiaEval evaluation software 2.0 (GE Healthcare). The individual rate constants kon and koff and a derived affinity constant, Kd=koff/kon, were determined by a kinetic evaluation of the sensorgrams. The kinetic models accounted for bulk and limited mass transport effects. Every analysis was performed at least in two independent experiments. The dissociation rate of a kinetic interaction can be translated into a compound residence time (dissociative half-life t1/2=ln(2)/koff) representative for the interaction time between the polymerase and its inhibitor.
(§2) The observed association rate constants (kon), dissociation rate constants (koff), derived affinity constant (Kd) and dissociative half-life (t1/2) measured for compounds of formula (I) or subgroups thereof on NS5B wild-type enzyme genotypes 1a, 1b and 4a are given in Table 2.
Background: In SPR one partner is held on a chip, and binding of the other changes the refractive index at the surface.

Test [6] addresses T3, NS5B wild-type enzyme genotype 1b (Hepatitis C virus genotype 1b, UniProt Q9WMX2).
T3 construct: NS5B (genotype 1b consensus strain Con1) lacking 21 C-terminal residues; made in house; host or cells: E. coli Rosetta 2 (DE3)
Description: Enzyme binding assay (SPR, Biacore), genotype 1b. Conditions: for koff / kon / t1/2 (dissociative half-life): genotype 1b; for koff / kon: SPR, 25° C.; for t1/2 (dissociative half-life): t1/2=ln(2)/koff. The protocol: as §1, §2

Test [7] concerns the target T4, NS5B wild-type enzyme genotype 1a (Hepatitis C virus genotype 1a, UniProt P27958).
T4 construct: The purified HIS6-tagged NS5BΔC21 polymerases were immobilized; made in house; host or cells: E. coli Rosetta 2 (DE3)
Description: Enzyme binding assay (SPR, Biacore), genotype 1a. Set-up: species or system HCV genotype 1a. As to conditions: for kon / t1/2 (dissociative half-life): genotype 1a; for kon: SPR, 25° C.; for t1/2 (dissociative half-life): t1/2=ln(2)/koff. How it is done:
as §1, §2

This is an account of results in patent US8357687B2, “Macrocyclic indole derivatives useful as hepatitis C virus inhibitors” (priority 2008, dated 2013).

T4 sequence (P27958 2421-2990): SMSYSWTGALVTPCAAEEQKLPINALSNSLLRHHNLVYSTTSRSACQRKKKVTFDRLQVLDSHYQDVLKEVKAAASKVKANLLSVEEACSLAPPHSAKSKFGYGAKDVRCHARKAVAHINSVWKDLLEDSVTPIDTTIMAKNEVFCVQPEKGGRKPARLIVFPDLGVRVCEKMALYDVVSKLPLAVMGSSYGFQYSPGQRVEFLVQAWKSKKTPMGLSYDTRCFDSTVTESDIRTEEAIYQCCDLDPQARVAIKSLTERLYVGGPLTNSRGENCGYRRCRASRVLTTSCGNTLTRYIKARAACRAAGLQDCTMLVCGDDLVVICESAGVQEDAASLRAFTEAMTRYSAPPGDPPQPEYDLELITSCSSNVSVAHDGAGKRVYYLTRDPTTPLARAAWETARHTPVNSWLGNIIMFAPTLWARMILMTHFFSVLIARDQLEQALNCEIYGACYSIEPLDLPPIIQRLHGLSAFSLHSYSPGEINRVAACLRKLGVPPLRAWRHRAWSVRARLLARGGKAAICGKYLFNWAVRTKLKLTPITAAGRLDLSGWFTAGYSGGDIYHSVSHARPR

As usually defined, the EC50 is the concentration needed to bring the measured effect to its halfway point. As a reminder, the IC50 is the point on the concentration scale where inhibition reaches its midpoint. A high value points to a need for much substance. In the case of `CN1CCCCCNC(=O)COc2ccccc2-c2c(C3CCCCC3)c3ccc(cc3n2C)C(=O)NS1(=O)=O` [Compound 21, 25-cyclohexyl-10,19-dimethyl-5,6,7,8,9,10-hexahydro-2H-14,18:17,20-di(metheno)-1,11,4,10,12,19-benzoxathiatetraazacyclodocosine-3,13(4H,12H,19H)-dione 11,11-dioxide], the values for the EC50 in test [1], in test [3] and in test [4] were 0.123 µM, 55 nM and 95 nM, respectively. The compound also showed an IC50 in test [2] of 148 nM.

Take `CN1CCN2CCN(CC2)C(=O)COc2ccccc2-c2c(C3CCCCC3)c3ccc(cc3n2C)C(=O)NS1(=O)=O` [Compound 22, 30-cyclohexyl-12,21-dimethyl-4-oxa-20-thia-1,12,19,21,24-pentaazapentacyclo[22.2.2.1^11,14.1^13,17.0^5,10]triaconta-5,7,9,11(30),13(29),14,16-heptaene-2,18-dione 20,20-dioxide]: the figures for the concentration giving a half-maximal response (EC50) in test [1], in test [3] and in test [4] were 0.164 µM, 156 nM and 201 nM, respectively. The same compound came in with a half-inhibitory concentration (IC50) in test [2] of 181 nM.

What is called Kd is the equilibrium constant for the complex coming apart. Higher therefore signals a looser complex. As a reminder, the koff is the first-order rate constant of dissociation. Low readings indicate slow dissociation, high ones fast dissociation. In the case of `CN1CCCCNC(=O)COc2ccccc2-c2c(C3CCCCC3)c3ccc(cc3n2C)C(=O)NS1(=O)=O` [Compound 32, 24-cyclohexyl-9,18-dimethyl-4,5,6,7,8,9-hexahydro-13,17:16,19-di(metheno)-1,10,4,9,11,18-benzoxathiatetraazacyclohenicosine-3,12(2H,11H,18H)-dione 10,10-dioxide], the results for the EC50 in test [1], in test [3] and in test [4] were 3.61 µM, 1600 nM and 2950 nM, respectively. In addition, the Kd in test [5] was found to be 450 nM; in test [6], 1200 nM; in test [7], 3300 nM. For the same compound, the values for the koff in test [5], in test [6] and in test [7] were 0.0087 s⁻¹, 0.015 s⁻¹ and 0.0089 s⁻¹, respectively. The kon was 1.9E+04 1/MS in test [5], 1.3E+04 1/MS in test [6] and 3.0E+03 1/MS in test [7]. The “t1/2 (dissociative half-life)” value is on record as 80 s in test [5], 47 s in test [6] and 78 s in test [7]. In test [2], this compound displayed an IC50 of 1820 nM.

As to `CN1CCCCN(C)S(=O)(=O)NC(=O)c2ccc3c(C4CCCCC4)c(n(C4CCCC4)c3c2)-c2ccccc2OCC1=O` [Compound 40, 24-cyclohexyl-18-cyclopentyl-4,9-dimethyl-4,5,6,7,8,9-hexahydro-13,17:16,19-di(metheno)-1,10,4,9,11,18-benzoxathiatetraazacyclohenicosine-3,12(2H,11H,18H)-dione 10,10-dioxide], the EC50 in test [1] turned out to be 7.34 µM; in test [3] it was 5150 nM; in test [4] it was 5270 nM. Moreover, inhibition in test [2] was half-maximal at 1090 nM (IC50).

For the compound `CN1CCCCCNC(=O)COc2ccc(F)cc2-c2c(C3CCCCC3)c3ccc(cc3n2C)C(=O)NS1(=O)=O` [Compound 51, 25-cyclohexyl-22-fluoro-10,19-dimethyl-5,6,7,8,9,10-hexahydro-2H-14,18:17,20-di(metheno)-1,11,4,10,12,19-benzoxathiatetraazacyclodocosine-3,13(4H,12H,19H)-dione 11,11-dioxide], in test [5], binding was characterised by a dissociation constant (Kd) of 11 nM, the koff was found to be 0.0022 s⁻¹, the kon is 1.9E+05 1/MS and the “t1/2 (dissociative half-life)” value is 320 s. The compound further came in with an IC50 in test [2] of 88 nM. For the same compound, in test [6], binding was put at a Kd of 16 nM, the koff amounted to 0.00031 s⁻¹, the kon is on record as 2.0E+04 1/MS and the “t1/2 (dissociative half-life)” value is reported as 2243 s. In addition, in test [7], the Kd amounted to 39 nM, the koff stood at 0.0035 s⁻¹, the kon was 9.5E+04 1/MS and the “t1/2 (dissociative half-life)” value stood at 198 s.

As to `CC(C)n1c2c(C3CCCCC3)c3ccc(cc31)C(=O)NS(=O)(=O)N(C)CCOCCN(C)C(=O)COc1ccccc1-2` [Compound 52, 25-cyclohexyl-4,10-dimethyl-19-(1-methylethyl)-5,6,9,10-tetrahydro-2H,8H-14,18:17,20-di(metheno)-1,7,11,4,10,12,19-benzodioxathiatetraazacyclodocosine-3,13 (4H,12H,19H)-dione 11,11-dioxide], the EC50 in test [1] is 7.66 µM; in test [3], 7140 nM; in test [4], 7960 nM. It took 1660 nM to reach half-maximal inhibition in test [2] (IC50).
